Reference: the supplement of paper PMC10307832

What was measured:
Assay in all cases: relative viability (nuclei count vs DMSO), 5 days (fraction); higher = more cells survive
[1] = compound: O=S(=O)(c1ccccc1)N(CC(F)(F)F)c1ccc(C(O)(C(F)(F)F)C(F)(F)F)cc1 + Cc1nc(Nc2ncc(C(=O)Nc3c(C)cccc3Cl)s2)cc(N2CCN(CCO)CC2)n1 [Dasatinib] (partner 0.075 µM)
In short: (§1)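 Five library-drug doses in √10 steps were combined with a fixed anchor-drug dose, or a single drug was given alone, by pin tool to lung cancer cell lines in 1536-well plates the day after seeding. Nuclei were stained and counted after 5 days. Relative viability is the nuclei count in treated wells over that in vehicle wells, taken as the median of duplicate plates.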

[2] = compound: C1=CC2=C(C=CC(=C2)C=C3C(=O)NC(=NCC4=CC=CS4)S3)N=C1 [RO-3306] + Cc1nc(Nc2ncc(C(=O)Nc3c(C)cccc3Cl)s2)cc(N2CCN(CCO)CC2)n1 [Dasatinib] (partner 0.075 µM)
In short: as §1

[3] = compound: C1=CC2=C(C=CC(=C2)C=C3C(=O)NC(=NCC4=CC=CS4)S3)N=C1 [RO-3306] + CC(=O)Nc1cccc(-n2c(=O)n(C3CC3)c(=O)c3c(Nc4ccc(I)cc4F)n(C)c(=O)c(C)c32)c1 [Trametinib] (partner 0.02 µM)
In short: as §1

[4] = compound: C1=CC2=C(C=CC(=C2)C=C3C(=O)NC(=NCC4=CC=CS4)S3)N=C1 [RO-3306] + Nc1nc2[nH]cc(CCc3ccc(C(=O)N[C@@H](CCC(=O)O)C(=O)O)cc3)c2c(=O)[nH]1 [Pemetrexed] (partner 0.2 µM)
In short: as §1

Cell Line | relative viability ([1]; first compound 0.8 µM) | relative viability ([1]; first compound 2.53 µM) | relative viability ([1]; first compound 8 µM) | relative viability ([2]; first compound 0.01 µM) | relative viability ([2]; first compound 0.03162 µM) | relative viability ([2]; first compound 0.1 µM) | relative viability ([2]; first compound 0.3162 µM) | relative viability ([2]; first compound 1 µM) | relative viability ([3]; first compound 0.01 µM) | relative viability ([3]; first compound 0.03162 µM) | relative viability ([3]; first compound 0.1 µM) | relative viability ([3]; first compound 0.3162 µM) | relative viability ([3]; first compound 1 µM) | relative viability ([4]; first compound 0.01 µM) | relative viability ([4]; first compound 0.03162 µM) | relative viability ([4]; first compound 0.1 µM) | relative viability ([4]; first compound 0.3162 µM) | relative viability ([4]; first compound 1 µM)
ChaGo-K-1 | 0.706 | 0.648 | 0.637 | 0.63 | 0.624 | 0.569 | 0.622 | 0.349 | 0.954 | 0.829 | 0.859 | 0.856 | 0.559 | 0.319 | 0.266 | 0.331 | 0.259 | 0.249
NCI-H2023 | 0.547 | 0.434 | 0.369 | 0.742 | 0.47 | 0.496 | 0.598 | 0.518 | 0.554 | 0.442 | 0.444 | 0.509 | 0.529 | 0.233 | 0.23 | 0.209 | 0.274 | 0.262
BEN | 0.252 | 0.275 | 0.333 | 0.381 | 0.324 | 0.297 | 0.307 | 0.338 | 1 | 0.895 | 1.02 | 1.13 | 1.13 | 0.634 | 0.735 | 0.728 | 0.769 | 0.803
NCI-H661 | 1.03 | 0.886 | 0.832 | 0.834 | 0.769 | 0.828 | 0.814 | 0.799 | 0.691 | 0.503 | 0.584 | 0.586 | 0.567 | 0.966 | 0.954 | 0.929 | 0.926 | 0.963
NCI-H2342 | 0.286 | 0.31 | 0.326 | 0.37 | 0.306 | 0.319 | 0.289 | 0.303 | 0.988 | 0.676 | 0.749 | 0.843 | 0.732 | 0.71 | 0.778 | 0.816 | 0.817 | 0.759
SW 1573 | 0.576 | 0.46 | 0.451 | 0.455 | – | 0.466 | 0.497 | 0.429 | 0.636 | 0.428 | 0.539 | 0.604 | 0.573 | 0.893 | 0.744 | 0.697 | 0.9 | 0.67
NCI-H1734 | 0.553 | 0.464 | 0.462 | 0.442 | 0.476 | 0.444 | 0.473 | 0.443 | 0.757 | 0.607 | 0.61 | 0.685 | 0.628 | 0.394 | 0.41 | 0.372 | 0.414 | 0.432
LC-2-ad | 0.655 | 0.525 | 0.627 | 0.57 | 0.311 | 0.582 | 0.533 | 0.507 | 0.961 | 0.848 | 0.945 | 0.908 | 0.852 | 0.291 | 0.26 | 0.278 | 0.278 | 0.27
NCI-H1651 | 0.486 | 0.434 | 0.306 | 0.383 | 0.329 | 0.382 | 0.418 | 0.354 | 0.805 | 0.803 | 0.828 | 0.826 | 0.8 | 0.644 | 0.569 | 0.554 | 0.556 | 0.54
NCI-H838 | 0.273 | 0.303 | 0.325 | 0.351 | 0.254 | 0.244 | 0.295 | 0.273 | 0.596 | 0.487 | 0.54 | 0.557 | 0.45 | 0.256 | 0.252 | 0.252 | 0.251 | 0.282
201T | 0.463 | 0.435 | 0.497 | 0.584 | 0.588 | 0.571 | 0.529 | 0.517 | 0.691 | 0.727 | 0.706 | 0.725 | 0.671 | 0.277 | 0.315 | 0.358 | 0.32 | 0.41
NCI-H1650 | 0.343 | 0.316 | 0.389 | 0.326 | 0.284 | 0.311 | 0.33 | 0.291 | 0.6 | 0.505 | 0.514 | 0.565 | 0.447 | 0.517 | 0.351 | 0.324 | 0.335 | 0.38
HOP-62 | 0.716 | 0.552 | 0.544 | 0.709 | 0.516 | 0.633 | 0.757 | 0.504 | 0.433 | 0.383 | 0.384 | 0.398 | 0.36 | 0.371 | 0.438 | 0.318 | 0.307 | 0.416
PC-3 [JPC-3] | 1.03 | 1.05 | 0.972 | 1.02 | 0.799 | 0.953 | 0.991 | 0.819 | 0.715 | 0.697 | 0.704 | 0.694 | 0.65 | 0.783 | 0.753 | 1.01 | 1.07 | 0.37
COR-L23 | 0.591 | 0.461 | 0.5 | 0.477 | 0.392 | 0.48 | 0.642 | 0.374 | 0.656 | 0.374 | 0.558 | 0.532 | 0.656 | 0.179 | 0.216 | 0.214 | 0.194 | 0.187
NCI-H1792 | 0.712 | 0.587 | 0.506 | 1.03 | – | 0.752 | 0.814 | 0.55 | 0.508 | – | 0.372 | 0.585 | 0.413 | 1.11 | – | 0.649 | 0.757 | 0.749
